Values quoted from earlier work, collected in US6379294B1, “Process for preparing esterquats” (Akzo Nobel N.V., priority 1999, dated 2002).

Details: salts of the tertiary amines as such; from Klomp, Kruka, Reijnhart, IBC Conference 1998

In the case of `CCCCCCCCCCN(CCCC)CCCC` [di-n-butyl decyl amine], the “Inhibition of the growth of gas hydrates” value is given as “inhibited the growth of gas hydrates”.

For `CCCCN(CCCC)CCCC` [tri-n-butyl amine], the “Inhibition of the growth of gas hydrates” value is listed as “inhibited the growth of gas hydrates”.
